Experimental data reported in ChEMBL document CHEMBL5241061, “Advance of structural modification of nucleosides scaffold” (Eur J Med Chem, 2021).

Assays:
Type in all cases: functional, organism-based
Hepatitis B virus = experiment: Antiviral activity against Hepatitis B virus
[1] = test system: Human immunodeficiency virus; experiment: Antiviral activity against Human immunodeficiency virus; conditions: Human immunodeficiency virus 1
[2] = test system: Human immunodeficiency virus; experiment: Antiviral activity against Human immunodeficiency virus infected in MT4 cell incubated for 72 hrs by CPE based microscopic assay; conditions: Human immunodeficiency virus 1, MT4, 72 h

EC50 (Hepatitis B virus) | EC50 [1] | EC50 [2] | SMILES
6 µM | 8.2 µM | – | Nc1ncnc2c1ncn2[C@@H]1CC[C@H](CO)O1
20 µM | 3.4 µM | – | Nc1ncnc2c1ncn2[C@H]1O[C@@H](CO)[C@H](O)C1(F)F
– | – | 0.001 µM | Cc1cn(C2CC(N=[N+]=[N-])C(CO[PH](=O)OC3CCC4(C)C(C=CC5C4CCC4(C)C(C(C)CCCC(C)C)CCC54)C3)O2)c(=O)[nH]c1=O (configuration not stated)
1.2 µM | 0.38 µM | – | Nc1ncnc2c1ncn2[C@@H]1C=C[C@H](CO)O1
